Data: US20200031778A1, “NOVEL 5-SUBSTITUTED IMIDAZOLYLMETHYL DERIVATIVES” (Bayer CropScience Aktiengesellschaft, priority 2016, published 2020)

Test: Log P by HPLC on reversed phase columns (EEC directive 79/831 Annex V.A8; methods [a], [b], [c])
Format: physicochemical
Conditions: for chromatographic logP: reversed phase HPLC column, method [a]: LC-UV, acidic range, 0.1% formic acid in water and acetonitrile as eluent (linear gradient from 10% to 95% acetonitrile)
Procedure: Measurement of Log P values was performed according to EEC directive 79/831 Annex V.A8 by HPLC (High Performance Liquid Chromatography) on reversed phase columns with the following methods: • ^[a] Log P value is determined by measurement of LC-UV, in an acidic range, with 0.1% formic acid in water and acetonitrile as eluent (linear gradient from 10% acetonitrile to 95% acetonitrile). • ^[b] Log P value is determined by measurement of LC-UV, in a neutral range, with 0.001 molar ammonium acetate solution in water and acetonitrile as eluent (linear gradient from 10% acetonitrile to 95% acetonitrile). • ^[c] Log P value is determined by measurement of LC-UV, in an acidic range, with 0.1% phosphoric acid and acetonitrile as eluent (linear gradient from 10% acetonitrile to 95% acetonitrile).
If more than one Log P value is available within the same method, all the values are given and separated by “+”.
Calibration was done with straight-chain alkan2-ones (with 3 to 16 carbon atoms) with known Log P values (measurement of Log P values using retention times with linear interpolation between successive alkanones). Lambda-max-values were determined using UV-spectra from 200 nm to 400 nm and the peak values of the chromatographic signals.

| LogP | chromatographic logP | Structure (SMILES) |
| --- | --- | --- |
| 4.03^[a] | – | C[Si](C)(C)C#Cc1ccc(C(O)(Cn2cncc2C#N)C2(Cl)CC2)c(F)c1 (stereo not drawn) [I-650] |
| 3.04^[a] | – | C[Si](C)(C#CC(O)(Cn1cncc1C#N)C1(F)CC1)c1ccccc1 (stereo not drawn) [I-595] |
| 2.71^[a] | – | N#Cc1cncn1CC(O)(c1ccc(Cl)c(Br)c1)C1(F)CC1 (stereo not drawn) [I-538] |
| 2.56^[a] | – | N#Cc1cncn1CC(O)(CC1CC1)c1ccc(Cl)c(F)c1 (stereo not drawn) [I-486] |
| – | 0.97 | O=C(Cn1cncc1Cl)c1ccc(O)cc1Cl [IX-145] |
| 2.36^[a] | – | N#Cc1cncn1CC(O)(c1ccc(Cl)cc1F)C1(F)CC1 (stereo not drawn) [I-356] |
| 2.76^[a] | – | N#Cc1cncn1CC(O)(c1cc(Cl)cc(Cl)c1F)C1(Cl)CC1 (stereo not drawn) [I-609] |
| 2.49^[a] | – | N#Cc1cncn1CC(O)(c1cc(F)cc(Cl)c1F)C1(Cl)CC1 (stereo not drawn) [I-610] |
| 2.51^[a] | – | COc1ccc(C#CC(O)(Cn2cncc2C#N)C2(Cl)CC2)cc1 (stereo not drawn) [I-321] |
| 3.05^[a] | – | CCCC(O)(Cn1cncc1C#N)c1ccc(Cl)cc1C(F)(F)F (stereo not drawn) [I-461] |
| 2.31^[a] | – | CC(C)C(O)(Cn1cncc1C#N)c1ccc(Cl)cc1 (stereo not drawn) [I-288] |
| 3.33^[a] | – | CC(C)CCCC(O)(Cn1cncc1C#N)C1(Cl)CC1 (stereo not drawn) [I-599] |
| 2.70^[a] | – | C[Si](C)(C)C#CC(O)(CC1CC1)Cn1cncc1C#N (stereo not drawn) [I-454] |
| 2.51^[a] | – | COc1nc(Cl)ccc1C(O)(Cn1cncc1C#N)C1(Cl)CC1 (stereo not drawn) [I-561] |
| 2.67^[a] | – | N#Cc1cncn1CC(O)(c1cc(Cl)cc(Cl)c1)C1(F)CC1 (stereo not drawn) [I-472] |
| 3.55^[a] | – | N#Cc1cncn1CC(=O)c1ccc(Oc2ccc(S(F)(F)(F)(F)F)cc2)nc1C(F)(F)F [IX-135] |
| 2.66^[a] | – | N#Cc1cncn1CC(O)(c1cc(Cl)cc(Cl)c1F)C1(F)CC1 (stereo not drawn) [I-572] |
| 2.27^[a] | – | CCC(O)(Cn1cncc1C#N)c1ccccc1C(F)(F)F (stereo not drawn) [I-329] |
| 2.43^[a] | – | CC(O)(Cn1cncc1C#N)c1cnc(Oc2ccc(Cl)nc2)cc1C(F)(F)F (stereo not drawn) [I-360] |
| 2.46^[a] | – | CC(C)C(O)(Cn1cncc1C#N)c1ccccc1C(F)(F)F (stereo not drawn) [I-345] |
| 3.15^[a] | – | CCCC(C)C(O)(Cn1cncc1C#N)c1ccc(Cl)cc1 (single isomer, unassigned) [I-328] |
| 2.99^[a] | – | N#Cc1cncn1CC(O)(CC1CC1)c1cc(Br)cc(Br)c1 (stereo not drawn) [I-498] |

| LogP | chromatographic logP | Structure (SMILES) |
| --- | --- | --- |
| 3.02^[a] | – | CC(C)C(O)(Cn1cncc1C#N)c1ccc(Br)cc1Cl (stereo not drawn) [I-422] |
| 2.51^[a] | – | N#Cc1cncn1CC(O)(c1ccc(Cl)c(Cl)c1)C1(F)CC1 (stereo not drawn) [I-487] |
| 2.61^[a] | – | N#Cc1cncn1CC(O)(c1cc(Cl)c(F)cc1F)C1(Cl)CC1 (stereo not drawn) [I-586] |
| 2.86^[a] | – | N#Cc1cncn1CC(O)(c1ccc(F)cc1Br)C1CCC1 (stereo not drawn) [I-449] |
| 2.18^[a] | – | N#Cc1cncn1CC(O)(c1cc(F)c(F)cc1F)C1(F)CC1 (stereo not drawn) [I-521] |
| 2.40^[a] | – | N#Cc1cncn1CC(O)(c1ccc(F)c(Br)c1)C1(F)CC1 (stereo not drawn) [I-470] |
| 2.71^[a] | – | N#Cc1cncn1CC(O)(CC1CC1)c1cc(F)c(F)c(Cl)c1 (stereo not drawn) [I-492] |
| 3.00^[a] | – | CCc1cc(Cl)ccc1C(O)(Cn1cncc1C#N)C1(Cl)CC1 (stereo not drawn) [I-335] |
| 3.99^[a] | – | N#Cc1cncn1CC(O)(c1ccc(C#CC2CCCC2)cc1F)C1(Cl)CC1 (stereo not drawn) [I-649] |
| – | 1.75 | N#Cc1cncn1CC(=O)c1ccc(F)cc1F [IX-87] |
| 2.60^[a] | – | N#Cc1cncn1CC(O)(c1ccc(Cl)c(F)c1F)C1(Cl)CC1 (stereo not drawn) [I-629] |
| 3.39^[a] | – | CC(C)(C)c1ccc(C(O)(Cn2cncc2C#N)C2(Cl)CC2)c(Cl)c1 (stereo not drawn) [I-354] |
| 3.21^[a] | – | COc1ccc(C(O)(Cn2cncc2C#N)CC(C)(C)C)c(Cl)c1 (stereo not drawn) [I-367] |
| 2.58^[a] | – | N#Cc1cncn1CC(O)(c1ccc(F)c(Cl)c1Cl)C1(Cl)CC1 (stereo not drawn) [I-618] |
| 3.63^[a] | – | CCCC(C)C(O)(Cn1cncc1C#N)c1ccc(Cl)cc1Cl (single isomer, unassigned) [I-315] |
| – | 3.71 | CCC(=O)c1cncn1CC(=O)c1ccc(Oc2ccc(Br)cc2)cc1C(F)(F)F [IX-139] |
| 2.27^[a] | – | CC(=O)c1cncn1CC(C)(O)c1ccc(Oc2ccc(C(F)(F)F)nc2)nc1C(F)(F)F (stereo not drawn) [I-291] |
| 3.65^[a] | – | CCCC#Cc1ccc(C(O)(Cn2cncc2C#N)C2(Cl)CC2)c(Cl)c1 (stereo not drawn) [I-655] |
| 2.22^[a] | – | N#Cc1cncn1CC(O)(c1ccc(F)cc1Cl)C1(F)CC1 (stereo not drawn) [I-349] |
| 2.76^[a] | – | N#Cc1cncn1CC(O)(c1cc(Cl)cc(Br)c1)C1(F)CC1 (stereo not drawn) [I-536] |
| – | 1.94 | N#Cc1cncn1CC(=O)c1ccc(Cl)cc1F [IX-147] |
| 1.36^[a] | – | C#CC(O)(Cn1cncc1C#N)C1(Cl)CC1 (stereo not drawn) [I-670] |

The remaining lines, values behind:

| Structure (SMILES) | LogP | chromatographic logP |
| --- | --- | --- |
| CC(O)(Cn1cncc1Cl)c1cnc(Oc2ccc(Cl)cc2)cc1Cl (stereo not drawn) [I-162] | 2.41^[a] | – |
| OC(Cn1cncc1Cl)c1ccc(Oc2ccc(I)cc2)cc1Cl (stereo not drawn) [I-08] | 2.94^[a] | – |
| CC(C)(C)CC(C)(O)Cn1cncc1C#N (stereo not drawn) [I-239] | 1.92^[a] | – |
| CCCCC(O)(Cn1cncc1C#N)c1ccc(C(F)(F)F)cc1F (stereo not drawn) [I-267] | 3.35^[a] | – |
| CC(C)(C)CC(O)(Cn1cncc1C#N)c1ccc(C(F)(F)F)cc1Cl (stereo not drawn) [I-268] | 3.85^[a] | – |
| OC(Cn1cncc1Cl)c1ccc(Oc2ccc(Br)cn2)cc1Cl (stereo not drawn) [I-79] | 2.10^[a] | – |
| OC(Cn1cncc1F)c1ccc(Oc2ccc(C(F)F)cc2)nc1Cl (stereo not drawn) [I-102] | 1.80^[a] | – |
| N#Cc1cncn1CC(O)(c1ccc(Cl)cc1)C1(F)CC1 (stereo not drawn) [I-231] | 2.27^[a] | – |
| N#Cc1cncn1CC(O)c1ccc(Oc2ccc(OC(F)(F)F)cc2)nc1C(F)(F)F (stereo not drawn) [I-137] | 3.12^[a] | – |
| OC(Cn1cncc1Br)c1ccc(Oc2ccccc2)cc1Cl (stereo not drawn) [I-27] | 2.21^[a] | – |
| N#Cc1cncn1CC(O)(c1ccc(F)cc1Cl)C1(Cl)CC1 (stereo not drawn) [I-236] | 2.35^[a] | – |
| N#Cc1cncn1CC(O)c1cnc(Oc2ccc(C(F)(F)F)cc2)cc1Cl (stereo not drawn) [I-127] | 2.96^[a] | – |
| CC(O)(Cn1cncc1Br)c1ccc(Oc2ccc(Cl)cc2)cc1 (stereo not drawn) [I-165] | 2.30^[a] | – |
| COC(Cn1cncc1F)c1ccc(Oc2ccc(Cl)cc2)cc1C(F)(F)F (stereo not drawn) [I-108] | 3.16^[a] | – |
| CC(O)(Cn1cncc1C#N)c1ccc(Oc2ccc(Cl)cc2)cc1Cl (stereo not drawn) [I-182] | 3.51^[a] | – |
| OC(Cn1cncc1Br)c1ccc(Oc2ccc(Cl)cc2)cc1 (stereo not drawn) [I-18] | 2.23^[a] | – |
| CCOC(Cn1cncc1F)c1ccc(Oc2ccc(Cl)cc2)cc1C(F)(F)F (stereo not drawn) [I-107] | 3.54^[a] | – |
| N#Cc1cncn1CC(O)(c1ccc(Cl)nc1Cl)C1(Cl)CC1 (stereo not drawn) [I-597] | 2.12^[a] | – |
| CC(O)(Cn1cncc1C#N)c1ccc(Oc2ccc(I)cc2)cc1Cl (stereo not drawn) [I-202] | 3.73^[a] | – |
| CC(O)(Cn1cncc1C#N)c1cnc(Oc2ccc(Cl)cc2)cc1C(F)(F)F (stereo not drawn) [I-249] | 3.44^[a] | – |
| OC(Cn1cncc1Cl)c1ccc(Oc2ccc(C(F)(F)F)cc2)cc1C(F)(F)F (stereo not drawn) [I-35] | 3.00^[a] | – |
| N#Cc1cncn1CC(O)(c1ccc(Cl)nc1F)C1(Cl)CC1 (stereo not drawn) [I-554] | 2.15^[a] | – |

| Structure (SMILES) | LogP | chromatographic logP |
| --- | --- | --- |
| COC(Cn1cncc1C#N)c1ccc(Oc2ccc(C(F)(F)F)cc2)cc1C(F)(F)F (stereo not drawn) [I-67] | 4.27^[a] | – |
| OC(Cn1cncc1Cl)c1ccc(Oc2ccc(Br)cc2)cc1Cl (stereo not drawn) [I-11] | 2.75^[a] | – |
| CCCCC(O)(Cn1cncc1C#N)c1ccc(Cl)cc1Cl (stereo not drawn) [I-261] | 3.41^[a] | – |
| COC(Cn1cncc1C#N)c1ccc(Oc2ccc(Cl)cc2)cc1C(F)F (stereo not drawn) [I-74] | 3.76^[a] | – |
| CC(=O)OC(Cn1cncc1F)c1ccc(Oc2ccc(Cl)cc2)cc1C(F)(F)F (stereo not drawn) [I-104] | 3.18^[a] | – |
| CC(O)(Cn1cncc1Br)c1ccc(Oc2ccc(Cl)cc2)cc1C(F)(F)F (stereo not drawn) [I-193] | 2.76^[a] | – |
| CC(O)(Cn1cncc1F)c1cnc(Oc2ccc(Br)cc2)cc1C(F)(F)F (single isomer, unassigned) [I-220] | 2.37^[a] | – |
| OC(Cn1cncc1F)c1ccc(Oc2ccc(Br)nc2)nc1C(F)(F)F (stereo not drawn) [I-155] | 1.75^[a] | – |
| CCOC(Cn1cncc1C#N)c1ccc(Oc2ccc(Cl)cc2)cc1Br (stereo not drawn) [I-62] | 4.51^[a] | – |
| OC(Cn1cncc1F)c1cnc(Oc2ccc(C(F)(F)F)cc2)cc1Cl (stereo not drawn) [I-126] | 2.27^[a] | – |
| Cc1ccc(C(O)(Cn2cncc2C#N)C2(Cl)CC2)cc1C1(C(F)(F)F)CC1 (stereo not drawn) [I-212] | 3.27^[a] | – |
| COC(Cn1cncc1C#N)c1ccc(Oc2ccc(Cl)cc2)cc1F (stereo not drawn) [I-60] | 3.65^[a] | – |
| COC(Cn1cncc1C#N)c1ccc(Oc2ccc(Br)cc2)cc1Br (stereo not drawn) [I-63] | 4.20^[a] | – |
| N#Cc1cncn1CC(O)(c1ccc(F)cc1)C1(Cl)CC1 (stereo not drawn) [I-248] | 2.21^[a] | – |
| OC(Cn1cncc1F)c1ccc(Oc2ccc(C(F)(F)F)nc2)nc1C(F)(F)F (stereo not drawn) [I-142] | 1.98^[a] | – |
| CC(=O)c1cncn1CC(C)(O)c1ccc(Oc2ccc(C(F)(F)F)cc2)cc1C(F)(F)F (stereo not drawn) [I-207] | 3.27^[a] | – |
| OC(Cn1cncc1Br)c1ccc(Oc2ccc(I)cc2)cc1Br (stereo not drawn) [I-109] | 2.78^[a] | – |
| OC(Cn1cncc1Cl)c1ccc(Oc2ccccn2)cc1Cl (stereo not drawn) [I-80] | 1.53^[a] | – |
| CC(O)(Cn1cncc1C#N)c1ccc(Oc2ccc(I)cc2)cc1Br (stereo not drawn) [I-217] | 3.81^[a] | – |
| CC(O)(Cn1cncc1Cl)c1ccc(Oc2ccc(C(F)(F)F)cc2)cc1 (stereo not drawn) [I-161] | 2.51^[a] | – |
| CC(=O)c1cncn1CC(C)(O)c1cnc(Oc2ccc(C(F)(F)F)cc2)cc1Br (stereo not drawn) [I-252] | 2.84^[a] | – |
